Laboratory results taken from the NIST ThermoML archive (doi:10.1021/je7003148).
Numbers after ± are expanded uncertainties.

Experiment: cn = amount concentration of the nth substance listed, in mol/dm3
Settings: 298 K; for surface tension liquid-gas: Ring tensiometer; for kinematic viscosity / speed of sound / mass density: 101.33 kPa, Liquid; for kinematic viscosity: Capillary tube (Ostwald / Ubbelohde) method; for speed of sound: Sing-around technique in a fixed-path interferometer

With `O` [water] + CCCCCCCCCCCCCCCCCC[N+](C)(C)C.[Br-] the surface tension liquid-gas (c2 = 0) was 72.5 ± 0.9 mN/m and the kinematic viscosity (c2 = 0) was 8.957e-07 ± 6.1e-09 m2/s.

`CCCCCCCCCCCCCCCCCC[N+](C)(C)C.[Br-]` [N,N,N-trimethyl-1-octadecanaminium bromide] + O showed a surface tension liquid-gas (c1 = 0.001) of 62.3 ± 0.8 mN/m, a surface tension liquid-gas (c1 = 0.002) of 54.2 ± 0.7 mN/m and a surface tension liquid-gas (c1 = 0.003) of 48.7 ± 0.6 mN/m. For the same compound, the surface tension liquid-gas (c1 = 0.004) was 45 ± 0.6 mN/m, the surface tension liquid-gas (c1 = 0.005) was 42.8 ± 0.6 mN/m and the surface tension liquid-gas (c1 = 0.006) was 42 ± 0.6 mN/m. It also gave a surface tension liquid-gas (c1 = 0.008) of 41.4 ± 0.6 mN/m, a surface tension liquid-gas (c1 = 0.01) of 41.3 ± 0.6 mN/m and a surface tension liquid-gas (c1 = 0.013) of 41 ± 0.6 mN/m. The surface tension liquid-gas (c1 = 0.016) was 40.8 ± 0.6 mN/m, the surface tension liquid-gas (c1 = 0.02) was 40.4 ± 0.6 mN/m and the surface tension liquid-gas (c1 = 0.025) was 40.2 ± 0.5 mN/m. The surface tension liquid-gas (c1 = 0.03) was 39.6 ± 0.5 mN/m, the surface tension liquid-gas (c1 = 0.04) was 39.3 ± 0.5 mN/m and the kinematic viscosity (c1 = 0.001) was 8.957e-07 ± 6.1e-09 m2/s. It also gave a kinematic viscosity (c1 = 0.002) of 8.958e-07 ± 6.1e-09 m2/s, a kinematic viscosity (c1 = 0.003) of 8.958e-07 ± 6.1e-09 m2/s and a kinematic viscosity (c1 = 0.004) of 8.958e-07 ± 6.1e-09 m2/s. It also gave a kinematic viscosity (c1 = 0.005) of 8.959e-07 ± 6.1e-09 m2/s, a kinematic viscosity (c1 = 0.006) of 8.959e-07 ± 6.1e-09 m2/s and a kinematic viscosity (c1 = 0.008) of 8.96e-07 ± 6.1e-09 m2/s. For the same compound, the kinematic viscosity (c1 = 0.01) was 8.96e-07 ± 6.1e-09 m2/s, the kinematic viscosity (c1 = 0.013) was 8.961e-07 ± 6.2e-09 m2/s and the kinematic viscosity (c1 = 0.016) was 8.962e-07 ± 6.2e-09 m2/s. It also gave a kinematic viscosity (c1 = 0.02) of 8.963e-07 ± 6.2e-09 m2/s, a kinematic viscosity (c1 = 0.025) of 8.965e-07 ± 6.2e-09 m2/s and a kinematic viscosity (c1 = 0.03) of 8.966e-07 ± 6.2e-09 m2/s. For the same compound, the kinematic viscosity (c1 = 0.04) was 8.969e-07 ± 6.2e-09 m2/s, the speed of sound (c1 = 0.001) was 1497.2 ± 0.9 m/s and the speed of sound (c1 = 0.002) was 1497.7 ± 0.9 m/s. For the same compound, the speed of sound (c1 = 0.003) was 1498 ± 0.9 m/s, the speed of sound (c1 = 0.004) was 1498.2 ± 0.9 m/s and the speed of sound (c1 = 0.005) was 1498 ± 0.9 m/s. It also gave a speed of sound (c1 = 0.006) of 1497.8 ± 0.9 m/s, a speed of sound (c1 = 0.008) of 1497.2 ± 0.9 m/s and a speed of sound (c1 = 0.01) of 1496.7 ± 0.9 m/s. The speed of sound (c1 = 0.013) was 1496 ± 0.9 m/s, the speed of sound (c1 = 0.016) was 1495.2 ± 0.9 m/s and the speed of sound (c1 = 0.02) was 1494.2 ± 0.9 m/s. For the same compound, the speed of sound (c1 = 0.025) was 1492.7 ± 0.9 m/s, the speed of sound (c1 = 0.03) was 1491.6 ± 0.9 m/s and the speed of sound (c1 = 0.04) was 1489.2 ± 0.9 m/s. It also gave a mass density (c1 = 0.001) of 997.053 ± 0.27 kg/m3, a mass density (c1 = 0.002) of 997.053 ± 0.27 kg/m3 and a mass density (c1 = 0.003) of 997.053 ± 0.27 kg/m3. It also gave a mass density (c1 = 0.004) of 997.053 ± 0.27 kg/m3, a mass density (c1 = 0.005) of 997.053 ± 0.27 kg/m3 and a mass density (c1 = 0.006) of 997.054 ± 0.27 kg/m3. For the same compound, the mass density (c1 = 0.008) was 997.054 ± 0.27 kg/m3, the mass density (c1 = 0.01) was 997.054 ± 0.27 kg/m3 and the mass density (c1 = 0.013) was 997.054 ± 0.27 kg/m3. For the same compound, the mass density (c1 = 0.016) was 997.054 ± 0.27 kg/m3, the mass density (c1 = 0.02) was 997.055 ± 0.27 kg/m3 and the mass density (c1 = 0.025) was 997.055 ± 0.27 kg/m3. It also gave a mass density (c1 = 0.03) of 997.056 ± 0.27 kg/m3 and a mass density (c1 = 0.04) of 997.057 ± 0.27 kg/m3.

In the case of `O` [water] + CCCCCCCCCCCCCC[N+](C)(C)C.[Br-], the surface tension liquid-gas (c2 = 0) is reported as 72.5 ± 0.9 mN/m and the kinematic viscosity (c2 = 0) is reported as 8.957e-07 ± 6.1e-09 m2/s.

For `CCCCCCCCCCCCCC[N+](C)(C)C.[Br-]` [tetradecyltrimethylammonium bromide] + O, the surface tension liquid-gas (c1 = 0.001) was 60.4 ± 0.8 mN/m, the surface tension liquid-gas (c1 = 0.002) was 51.7 ± 0.7 mN/m and the surface tension liquid-gas (c1 = 0.003) was 44 ± 0.6 mN/m. It also gave a surface tension liquid-gas (c1 = 0.005) of 40.6 ± 0.6 mN/m, a surface tension liquid-gas (c1 = 0.01) of 38 ± 0.5 mN/m and a surface tension liquid-gas (c1 = 0.015) of 37.8 ± 0.5 mN/m. It also gave a surface tension liquid-gas (c1 = 0.02) of 37.6 ± 0.5 mN/m, a surface tension liquid-gas (c1 = 0.025) of 37.4 ± 0.5 mN/m and a surface tension liquid-gas (c1 = 0.03) of 37.1 ± 0.5 mN/m. It also gave a surface tension liquid-gas (c1 = 0.035) of 37 ± 0.5 mN/m, a surface tension liquid-gas (c1 = 0.04) of 36.9 ± 0.5 mN/m and a surface tension liquid-gas (c1 = 0.045) of 36.8 ± 0.5 mN/m. It also gave a surface tension liquid-gas (c1 = 0.05) of 36.7 ± 0.5 mN/m, a surface tension liquid-gas (c1 = 0.055) of 36.7 ± 0.5 mN/m and a kinematic viscosity (c1 = 0.001) of 8.962e-07 ± 6.1e-09 m2/s. For the same compound, the kinematic viscosity (c1 = 0.002) was 8.968e-07 ± 6.2e-09 m2/s, the kinematic viscosity (c1 = 0.003) was 8.991e-07 ± 6.2e-09 m2/s and the kinematic viscosity (c1 = 0.005) was 9.015e-07 ± 6.2e-09 m2/s. It also gave a kinematic viscosity (c1 = 0.01) of 9.078e-07 ± 6.2e-09 m2/s, a kinematic viscosity (c1 = 0.015) of 9.144e-07 ± 6.3e-09 m2/s and a kinematic viscosity (c1 = 0.02) of 9.215e-07 ± 6.3e-09 m2/s. For the same compound, the kinematic viscosity (c1 = 0.025) was 9.29e-07 ± 6.4e-09 m2/s, the kinematic viscosity (c1 = 0.03) was 9.368e-07 ± 6.4e-09 m2/s and the kinematic viscosity (c1 = 0.035) was 9.45e-07 ± 6.5e-09 m2/s. For the same compound, the kinematic viscosity (c1 = 0.04) was 9.537e-07 ± 6.5e-09 m2/s, the kinematic viscosity (c1 = 0.045) was 9.627e-07 ± 6.6e-09 m2/s and the kinematic viscosity (c1 = 0.05) was 9.722e-07 ± 6.7e-09 m2/s. The kinematic viscosity (c1 = 0.055) was 9.82e-07 ± 6.7e-09 m2/s, the speed of sound (c1 = 0.001) was 1496.9 ± 0.9 m/s and the speed of sound (c1 = 0.002) was 1497.2 ± 0.9 m/s. It also gave a speed of sound (c1 = 0.003) of 1497.3 ± 0.9 m/s, a speed of sound (c1 = 0.005) of 1497.4 ± 0.9 m/s and a speed of sound (c1 = 0.01) of 1497.5 ± 0.9 m/s. It also gave a speed of sound (c1 = 0.015) of 1497.6 ± 0.9 m/s, a speed of sound (c1 = 0.02) of 1497.7 ± 0.9 m/s and a speed of sound (c1 = 0.025) of 1497.8 ± 0.9 m/s. The speed of sound (c1 = 0.03) was 1497.8 ± 0.9 m/s, the speed of sound (c1 = 0.035) was 1497.9 ± 0.9 m/s and the speed of sound (c1 = 0.04) was 1497.9 ± 0.9 m/s. It also gave a speed of sound (c1 = 0.045) of 1498 ± 0.9 m/s, a speed of sound (c1 = 0.05) of 1498.1 ± 0.9 m/s and a speed of sound (c1 = 0.055) of 1498.1 ± 0.9 m/s. The mass density (c1 = 0.001) was 997.062 ± 0.26 kg/m3, the mass density (c1 = 0.002) was 997.064 ± 0.27 kg/m3 and the mass density (c1 = 0.003) was 997.087 ± 0.27 kg/m3. For the same compound, the mass density (c1 = 0.005) was 997.106 ± 0.27 kg/m3, the mass density (c1 = 0.01) was 997.153 ± 0.27 kg/m3 and the mass density (c1 = 0.015) was 997.204 ± 0.27 kg/m3. The mass density (c1 = 0.02) was 997.268 ± 0.26 kg/m3, the mass density (c1 = 0.025) was 997.307 ± 0.26 kg/m3 and the mass density (c1 = 0.03) was 997.349 ± 0.26 kg/m3. The mass density (c1 = 0.035) was 997.402 ± 0.26 kg/m3, the mass density (c1 = 0.04) was 997.458 ± 0.26 kg/m3 and the mass density (c1 = 0.045) was 997.5 ± 0.26 kg/m3. For the same compound, the mass density (c1 = 0.05) was 997.545 ± 0.26 kg/m3 and the mass density (c1 = 0.055) was 997.604 ± 0.26 kg/m3.
